Source: EPA's ToxValDB 9.5
Values joined by “and” are separate entries in the source; they are usually repeats but may differ in a detail not shown here. Equal entries are not always repeated.

Key:
Rattus norvegicus [1] = system: Rattus norvegicus
Oryctolagus sp. [2] = settings: for LD50: acute
Mus musculus [3] = experiment: LD0; higher = less toxic; settings: acute; injection; Intraperitoneal
Mus musculus [4] = settings: oral
Rattus norvegicus [5] = settings: subchronic, oral, gavage, M/F
Rattus norvegicus [6] = experiment: LC0; higher = less toxic; settings: acute; inhalation
Homo sapiens [7] = settings: clinical, oral
Homo sapiens [8] = settings: clinical, duration: 14 days, oral, M, hematological
Rattus norvegicus [9] = experiment: LD0; higher = less toxic; settings: acute; dermal; semiocclusive; Sprague-Dawley
Cricetulus sp. [10] = settings: duration: 5 days, oral, gavage, Hamster
Rattus norvegicus [11] = settings: subchronic, oral, M/F
Rattus norvegicus [12] = settings: subchronic; duration: 13 weeks; oral; gavage; Liver: Hepatotoxicity
Cricetulus sp. [13] = settings: subchronic; duration: 13 weeks; inhalation; intermittent; Hamster; Nasal cavity: Olfactory degeneration
Gallus sp. [14] = settings: subchronic; duration: 90 days; oral; F; ataxia, delayed neurotoxicity and weight loss
Gallus sp. [15] = settings: subchronic; duration: 3 months; oral; capsule; Nervous system: Ataxia + Nervous system: Delayed neurotoxicity + Whole body: Decreased weight
Oryctolagus sp. [16] = experiment: LD0; higher = less toxic; settings: acute; dermal; New Zealand
Rattus norvegicus [17] = settings: M/F
Mouse, Rat = settings: subchronic; duration: 90 days; inhalation; intermittent; Adrenal: Lesions + Blood: Hematological effects + Kidney: Lesions + Liver: Lesions
Homo sapiens [18] = experiment: LD100; higher = less toxic; settings: acute; oral
Canidae [19] = settings: subchronic; duration: 13 weeks; oral; diet; M/F; Dog Other; Male reproductive toxicity and other effects (including decreased body weight gain), increased liver and kidney weights
Dog, Rat = settings: subchronic; duration: 13 weeks; oral; diet; Kidney: Effects + Liver: Effects
Canidae [20] = settings: subchronic, duration: 5 weeks, inhalation, unknown, renal
Monkey = settings: chronic; duration: 5 years; inhalation; M/F; Rhesus; respiratory
Anatidae = settings: oral
[21] = short-term, duration: 8 days, oral, gavage, Sprague-Dawley
[22] = subchronic, duration: 90 days, inhalation, Sprague-Dawley
[23] = short-term, duration: 28 days, dermal, occlusive, New Zealand
[24] = duration: 90 days, diet, increased liver and kidney weight

CCCCC(CC)COP(=O)(O)OCC(CC)CCCC (stereo not drawn) [Bis(2-ethylhexyl) phosphate]
LD50 (Rattus norvegicus [1]; acute, injection, Intraperitoneal): ≥ 50 mg/kg and ≤ 100 mg/kg | LD50 (Rattus norvegicus [1]; acute, oral): 4740 mg/kg | LD50 (Rattus norvegicus [1]; acute, oral, gavage, Wistar): 1400 mg/kg | LD50 (Oryctolagus sp. [2]; dermal): 1200 mg/kg | LD50 (Oryctolagus sp. [2]; dermal, occlusive, New Zealand): > 2000 mg/kg | LD0 (Mus musculus [3]): 63 mg/kg

O=C(O)CCl [Chloroacetic acid]
NOAEL (Rattus norvegicus [1]; chronic, duration: 208 days, oral, diet, M, Wistar): 25 mg/kg-day | NOAEL (Rattus norvegicus [1]; subchronic, duration: 13 weeks, oral, gavage, Fischer 344): 30 mg/kg-day | NOAEL (Mus musculus [4]; subchronic, duration: 13 weeks, gavage, B6C3F1): 100 mg/kg-day | NOEL (Rattus norvegicus [5]; duration: 13 weeks, Fischer 344, Deaths + Body Weight Changes: decrease + Blood Chemistry: Ch E decrease, Ca decrease, TP decrease + Absolute Organ Weight: Heart decrease, …): < 30 mg/kg-day | LC0 (Rattus norvegicus [6]): 0.005 mg/L

[Co] [Cobalt]
LOAEL (Homo sapiens [7]; duration: 2 weeks, Endocrine): 1 mg/kg-day | LOAEL (Homo sapiens [8]): 1 mg/kg-day | NOAEL (Homo sapiens [8]; capsule): 0.8 mg/kg-day

CC(C)C(C)(C)C(C)(C)C(C)(C)SSSSSC(C)(C)C(C)(C)C(C)(C)C(C)C [Di-tert-Dodecyl pentasulfide]
NOAEL (Rattus norvegicus [1]; developmental, duration: 6 days, oral, gavage, Sprague-Dawley): 1000 mg/kg-day | NOAEL (Rattus norvegicus [1]; reproduction developmental, duration: 6 days, oral, gavage, F, Sprague-Dawley): 1000 mg/kg-day | LOAEL (Rattus norvegicus [1]; [21]): 2500 mg/kg-day | NOAEL (Rattus norvegicus [1]; [21]): 1250 mg/kg-day | NOAEL (Rattus norvegicus [1]; short-term, duration: 28 days, oral, gavage, Sprague-Dawley): 1000 mg/kg-day | LD0 (Rattus norvegicus [9]): ≥ 2000 mg/kg

COC(=O)CCSCCC(=O)OC [Dimethyl 3,3'-thiodipropionate]
LD50 (Rattus norvegicus [1]; acute, oral): > 2500 mg/kg | NOAEL (Rattus norvegicus [1]; reproduction developmental, duration: 13 weeks, oral, gavage, Sprague-Dawley): 350 mg/kg-day | NOAEL (Rattus norvegicus [1]; reproduction developmental, duration: 10 days, oral, gavage, F, Wistar): 1600 mg/kg-day | NOAEL (Rattus norvegicus [1]; subchronic, duration: 13 weeks, oral, gavage, Sprague-Dawley): 350 mg/kg-day | NOAEL (Oryctolagus sp. [2]; developmental, duration: 13 days, oral, gavage, Dutch-belted): 1000 mg/kg-day | NOAEL (Cricetulus sp. [10]; developmental): 1600 mg/kg-day | NOAEL (Cricetulus sp. [10]; reproduction developmental, F): 1600 mg/kg-day | LD50 (Mus musculus [4]; acute): > 2000 mg/kg

O=Cc1ccco1 [Furfural]
NOEL (Rattus norvegicus [5]; duration: 13 weeks, Fischer 344, Deaths + Absolute Organ Weight: Kidney increase, Liver increase + Relative Organ Weight: Kidney increase, Liver increase + Histopathology: …): < 11 mg/kg-day | LOAEL (Rattus norvegicus [11]; hepatocellular vacuolization): 11 mg/kg-day | LOAEL (Rattus norvegicus [12]): 7.9 mg/kg-day | NOAEL (Cricetulus sp. [13]): 78.6 mg/m3

CCCCSP(SCCCC)SCCCC [Merphos]
LD50 (Rattus norvegicus [1]; acute, oral, gavage, Crl): 2480 mg/kg | LOAEL (Gallus sp. [14]): 0.5 mg/kg-day | NOEL (Gallus sp. [14]): 0.1 mg/kg-day | NOEL (Gallus sp. [15]): 0.1 mg/kg-day

CSSC [Methyl disulfide]
LC50 (Rattus norvegicus [1]; acute, inhalation, Sprague-Dawley): 3100 mg/m3 | LD50 (Rattus norvegicus [1]; acute, oral, gavage, Sprague-Dawley): ≥ 290 mg/kg and ≤ 500 mg/kg | LD50 (Rattus norvegicus [1]; acute, oral, gavage, Wistar): 190 mg/kg | NOAEL (Rattus norvegicus [1]; developmental, duration: 10 days, inhalation, Crl:CD(SD) BR): 57.8 mg/m3 | NOAEL (Rattus norvegicus [1]; reproduction developmental, duration: 10 days, inhalation, F, Crl:CD(SD) BR): < 38.5 mg/m3 | LOAEL (Rattus norvegicus [1]; [22]): 193 mg/m3 | NOAEL (Rattus norvegicus [1]; [22]): 38.5 mg/m3 | LOAEL (Oryctolagus sp. [2]; [23]): 106 mg/kg-day | NOAEL (Oryctolagus sp. [2]; [23]): 10.6 mg/kg-day | LD0 (Oryctolagus sp. [16]): ≥ 2000 mg/kg

O=[N+]([O-])c1ccccc1 [Nitrobenzene]
LOAEL (Rattus norvegicus [17]; subchronic, duration: 90 days, inhalation, F344 / Sprague-Dawley, hematological): 25.2 mg/m3 | NOEL (Rattus norvegicus [5]; Fischer 344, Deaths + Body Weight Changes: decrease + Food Consumption: decrease + Hematology: RBC decrease, WBC increase, , Hgb decrease, , Hct decrease…): < 5 mg/kg-day | NOEL (Rattus norvegicus [5]; Sprague-Dawley, Deaths + Clinical Observation: Piloerection, salivation, emacation Anemia, torticollis, rotating movement, abnormal gait + Body Weight …): < 20 mg/kg-day | LOAEL (Mouse, Rat): 25 mg/m3

CCCCCCCCCCCCCCCCCC(=O)O [Octadecanoic acid]
LD100 (Homo sapiens [18]): 14300 mg/kg | LD50 (Rattus norvegicus [1]; acute, oral): 4600 mg/kg

Cc1cc(Cl)ccc1OCCCC(=O)O [Thitrol]
LEL (Canidae [19]): 40 mg/kg-day | NOEL (Canidae [19]): 12 mg/kg-day | LEL (Rattus norvegicus [11]; [24]): 40 mg/kg-day | NOEL (Rattus norvegicus [11]; [24]): 12 mg/kg-day | NOEL (Dog, Rat): 12 mg/kg-day

O=[N+]([O-])OCC(CO[N+](=O)[O-])O[N+](=O)[O-] [Trinitroglycerin]
LOAEL (Homo sapiens [7]; Hematologic): 0.036 mg/kg-day

[U] [Uranium]
LOAEL (Canidae [20]; not reported): 0.15 mg/m3 | NOAEL (Canidae [20]; unspecified): 1.1 mg/m3 | LOAEL (Rattus norvegicus [17]; chronic, duration: 91 days, oral, drinking water, Sprague-Dawley, renal): 0.06 mg/kg-day | LOAEL (Monkey): 5.1 mg/m3 | NOAEL (Anatidae): 16 mg/kg-day
